Measurements published in US20150105252A1, “SUBSTITUTED PYRAZOLES AS HERBICIDES” (E I DU PONT DE NEMOURS AND COMPANY, priority 2013, published 2015).

Key:
Test in all cases: Test C postemergence
ryegrass, Italian = assay type: in vivo, Lolium multiflorum; conditions: postemergence
Outline: (§1)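 Visual control ratings on a 0–100 scale (100 = complete control) made against untreated controls after 13 to 15 days in greenhouse. Compounds applied in surfactant-containing solvent mixture, either preemergence to loam/sand-sown seeds or postemergence to 1- to 4-leaf plants (2–18 cm) in peat medium.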

waterhemp = assay type: in vivo, Amaranthus rudis; conditions: postemergence, 250 g ai/ha; scale 0 to 100 (0 no effect, 100 complete control)
Outline: as §1

foxtail, giant = assay type: in vivo, Setaria faberii; conditions: for Plant response rating (scale of 0 to 100 where 0 is no effect and 100 is complete control), Foxtail, Giant: Postemergence, 31 g ai/ha, visually evaluated after 13 to 15 days; for Foxtail, Giant plant response rating / Plant response rating, Foxtail, Giant: postemergence; for Foxtail, Giant plant response rating: 62 g ai/ha, scale 0 to 100
Outline: as §1

barnyardgrass = assay type: in vivo, Echinochloa crus-galli; conditions: for Plant response rating (scale of 0 to 100 where 0 is no effect and 100 is complete control), Barnyardgrass: Postemergence, 31 g ai/ha, visually evaluated after 13 to 15 days; for Barnyardgrass plant response rating / Plant response rating, Barnyardgrass: postemergence; for Barnyardgrass plant response rating: 62 g ai/ha, scale 0 to 100
Outline: as §1

oilseed rape = assay type: in vivo, Brassica napus; conditions: postemergence; for Oilseed Rape plant response rating: 62 g ai/ha, scale 0 to 100
Outline: as §1

wheat = assay type: in vivo, Triticum aestivum; conditions: postemergence; for Plant response rating, Wheat: 250 g ai/ha, scale 0 to 100 (0 no effect, 100 complete control)
Outline: as §1

nutsedge, yellow = assay type: in vivo, Cyperus esculentus; conditions: for Plant response rating (scale of 0 to 100 where 0 is no effect and 100 is complete control), Nutsedge, Yellow: Postemergence, 31 g ai/ha, visually evaluated after 13 to 15 days; for Nutsedge, Yellow plant response rating / Plant response rating, Nutsedge, Yellow: postemergence; for Nutsedge, Yellow plant response rating: 62 g ai/ha, scale 0 to 100
Outline: as §1

lambsquarters = assay type: in vivo, Chenopodium album; conditions: for Plant response rating (scale of 0 to 100 where 0 is no effect and 100 is complete control), Lambsquarters: Postemergence, 31 g ai/ha, visually evaluated after 13 to 15 days; for Lambsquarters plant response rating / Plant response rating, Lambsquarters: postemergence; for Lambsquarters plant response rating: 62 g ai/ha, scale 0 to 100
Outline: as §1

pigweed = assay type: in vivo, Amaranthus retroflexus; conditions: postemergence; for Pigweed plant response rating: 62 g ai/ha, scale 0 to 100
Outline: as §1

oat, wild = assay type: in vivo, Avena fatua; conditions: for Plant response rating (scale of 0 to 100 where 0 is no effect and 100 is complete control), Oat, Wild: Postemergence, 31 g ai/ha, visually evaluated after 13 to 15 days; for Oat, Wild plant response rating / Plant response rating, Oat, Wild: postemergence; for Oat, Wild plant response rating: 62 g ai/ha, scale 0 to 100
Outline: as §1

galium = assay type: in vivo, Galium aparine; conditions: for Plant response rating (scale of 0 to 100 where 0 is no effect and 100 is complete control), Galium: Postemergence, 31 g ai/ha, visually evaluated after 13 to 15 days; for Galium plant response rating / Plant response rating, Galium: postemergence; for Galium plant response rating: 62 g ai/ha, scale 0 to 100
Outline: as §1

corn = assay type: in vivo, Zea mays; conditions: for Plant response rating (scale of 0 to 100 where 0 is no effect and 100 is complete control), Corn: Postemergence, 31 g ai/ha, visually evaluated after 13 to 15 days; for Corn plant response rating / Plant response rating, Corn: postemergence; for Corn plant response rating: 62 g ai/ha, scale 0 to 100
Outline: as §1

ragweed = assay type: in vivo, Ambrosia elation; conditions: postemergence
Outline: as §1

kochia = assay type: in vivo, Kochia scoparia; conditions: for Plant response rating (scale of 0 to 100 where 0 is no effect and 100 is complete control), Kochia: Postemergence, 31 g ai/ha, visually evaluated after 13 to 15 days; for Kochia plant response rating / Plant response rating, Kochia: postemergence; for Kochia plant response rating: 62 g ai/ha, scale 0 to 100
Outline: as §1

soybean = assay type: in vivo, Glycine max; conditions: postemergence; for Plant response rating, Soybean: 250 g ai/ha, scale 0 to 100 (0 no effect, 100 complete control); for Soybean plant response rating: 125 g ai/ha, scale 0 to 100, 0 no effect, 100 complete control
Outline: as §1

[1] = 250 g ai/ha, scale 0 to 100 (0 no effect, 100 complete control)
[2] = 125 g ai/ha, scale 0 to 100, 0 no effect, 100 complete control

CCOc1cc(C(=O)NC(C)C)nn1Cc1ccnc(C(F)(F)F)c1 [Compound 188]
Plant response rating, Ryegrass, Italian (ryegrass, Italian; [1]): 35 | Plant response rating, Ryegrass, Italian (ryegrass, Italian; [2]): 20 | Plant response rating, Waterhemp (waterhemp): 95 | Plant response rating (scale of 0 to 100 where 0 is no effect and 100 is complete control), Foxtail, Giant (foxtail, giant): 5 | Foxtail, Giant plant response rating (foxtail, giant): 40 | Plant response rating, Foxtail, Giant (foxtail, giant; [1]): 90 | Plant response rating, Foxtail, Giant (foxtail, giant; [2]): 60 | Plant response rating (scale of 0 to 100 where 0 is no effect and 100 is complete control), Barnyardgrass (barnyardgrass): 5 | Barnyardgrass plant response rating (barnyardgrass): 15 | Plant response rating, Barnyardgrass (barnyardgrass; [1]): 65 | Plant response rating, Barnyardgrass (barnyardgrass; [2]): 30 | Oilseed Rape plant response rating (oilseed rape): 60 | Plant response rating, Oilseed Rape (oilseed rape; [1]): 90 | Plant response rating, Oilseed Rape (oilseed rape; [2]): 70 | Plant response rating, Wheat (wheat): 40 | Wheat plant response rating (wheat; scale 0 to 100): 15 | Plant response rating (scale of 0 to 100 where 0 is no effect and 100 is complete control), Nutsedge, Yellow (nutsedge, yellow): 5 | Nutsedge, Yellow plant response rating (nutsedge, yellow): 35 | Plant response rating, Nutsedge, Yellow (nutsedge, yellow; [1]): 10 | Plant response rating, Nutsedge, Yellow (nutsedge, yellow; [2]): 5 | Plant response rating (scale of 0 to 100 where 0 is no effect and 100 is complete control), Lambsquarters (lambsquarters): 60 | Lambsquarters plant response rating (lambsquarters): 75 | Plant response rating, Lambsquarters (lambsquarters; [1]): 95 | Plant response rating, Lambsquarters (lambsquarters; [2]): 90 | Pigweed plant response rating (pigweed): 75 | Plant response rating, Pigweed (pigweed; [1]): 85 | Plant response rating, Pigweed (pigweed; [2]): 80 | Plant response rating (scale of 0 to 100 where 0 is no effect and 100 is complete control), Oat, Wild (oat, wild): 15 | Oat, Wild plant response rating (oat, wild): 10 | Plant response rating, Oat, Wild (oat, wild; [1]): 85 | Plant response rating, Oat, Wild (oat, wild; [2]): 60 | Plant response rating (scale of 0 to 100 where 0 is no effect and 100 is complete control), Galium (galium): 80 | Galium plant response rating (galium): 80 | Plant response rating, Galium (galium; [1]): 90 | Plant response rating, Galium (galium; [2]): 90 | Plant response rating (scale of 0 to 100 where 0 is no effect and 100 is complete control), Corn (corn): 5 | Corn plant response rating (corn): 55 | Plant response rating, Corn (corn; [1]): 60 | Plant response rating, Corn (corn; [2]): 20 | Plant response rating, Ragweed (ragweed; [1]): 90 | Plant response rating, Ragweed (ragweed; [2]): 85 | Plant response rating (scale of 0 to 100 where 0 is no effect and 100 is complete control), Kochia (kochia): 90 | Kochia plant response rating (kochia): 90 | Plant response rating, Kochia (kochia; [1]): 90 | Plant response rating, Kochia (kochia; [2]): 90 | Plant response rating, Soybean (soybean): 98 | Soybean plant response rating (soybean): 95

CCOc1cc(C(=O)NC2CC2)nn1Cc1ccnc(C(F)(F)F)c1 [Compound 189]
Plant response rating, Ryegrass, Italian (ryegrass, Italian; [1]): 40 | Plant response rating, Ryegrass, Italian (ryegrass, Italian; [2]): 5 | Plant response rating, Waterhemp (waterhemp): 90 | Plant response rating (scale of 0 to 100 where 0 is no effect and 100 is complete control), Foxtail, Giant (foxtail, giant): 10 | Foxtail, Giant plant response rating (foxtail, giant): 10 | Plant response rating, Foxtail, Giant (foxtail, giant; [1]): 75 | Plant response rating, Foxtail, Giant (foxtail, giant; [2]): 25 | Plant response rating (scale of 0 to 100 where 0 is no effect and 100 is complete control), Barnyardgrass (barnyardgrass): 5 | Barnyardgrass plant response rating (barnyardgrass): 5 | Plant response rating, Barnyardgrass (barnyardgrass; [1]): 55 | Plant response rating, Barnyardgrass (barnyardgrass; [2]): 20 | Oilseed Rape plant response rating (oilseed rape): 60 | Plant response rating, Oilseed Rape (oilseed rape; [1]): 90 | Plant response rating, Oilseed Rape (oilseed rape; [2]): 65 | Plant response rating, Wheat (wheat): 15 | Plant response rating (scale of 0 to 100 where 0 is no effect and 100 is complete control), Nutsedge, Yellow (nutsedge, yellow): 5 | Nutsedge, Yellow plant response rating (nutsedge, yellow): 5 | Plant response rating, Nutsedge, Yellow (nutsedge, yellow; [1]): 20 | Plant response rating, Nutsedge, Yellow (nutsedge, yellow; [2]): 5 | Plant response rating (scale of 0 to 100 where 0 is no effect and 100 is complete control), Lambsquarters (lambsquarters): 60 | Lambsquarters plant response rating (lambsquarters): 70 | Plant response rating, Lambsquarters (lambsquarters; [1]): 85 | Plant response rating, Lambsquarters (lambsquarters; [2]): 95 | Pigweed plant response rating (pigweed): 75 | Plant response rating, Pigweed (pigweed; [1]): 90 | Plant response rating, Pigweed (pigweed; [2]): 85 | Plant response rating (scale of 0 to 100 where 0 is no effect and 100 is complete control), Oat, Wild (oat, wild): 10 | Oat, Wild plant response rating (oat, wild): 15 | Plant response rating, Oat, Wild (oat, wild; [1]): 60 | Plant response rating, Oat, Wild (oat, wild; [2]): 30 | Plant response rating (scale of 0 to 100 where 0 is no effect and 100 is complete control), Galium (galium): 80 | Galium plant response rating (galium): 80 | Plant response rating, Galium (galium; [1]): 90 | Plant response rating, Galium (galium; [2]): 90 | Plant response rating (scale of 0 to 100 where 0 is no effect and 100 is complete control), Corn (corn): 5 | Corn plant response rating (corn): 10 | Plant response rating, Corn (corn; [1]): 60 | Plant response rating, Corn (corn; [2]): 10 | Plant response rating, Ragweed (ragweed; [1]): 90 | Plant response rating, Ragweed (ragweed; [2]): 75 | Plant response rating (scale of 0 to 100 where 0 is no effect and 100 is complete control), Kochia (kochia): 85 | Kochia plant response rating (kochia): 90 | Plant response rating, Kochia (kochia; [1]): 90 | Plant response rating, Kochia (kochia; [2]): 90 | Plant response rating, Soybean (soybean): 95 | Soybean plant response rating (soybean): 95

CCNC(=O)c1cc(CC)n(Cc2ccnc(C(F)(F)F)c2)n1 [Compound 196]
Plant response rating, Ryegrass, Italian (ryegrass, Italian; [1]): 5 | Plant response rating, Ryegrass, Italian (ryegrass, Italian; [2]): 5 | Plant response rating, Waterhemp (waterhemp): 70 | Plant response rating (scale of 0 to 100 where 0 is no effect and 100 is complete control), Foxtail, Giant (foxtail, giant): 5 | Foxtail, Giant plant response rating (foxtail, giant): 25 | Plant response rating, Foxtail, Giant (foxtail, giant; [1]): 20 | Plant response rating, Foxtail, Giant (foxtail, giant; [2]): 20 | Plant response rating (scale of 0 to 100 where 0 is no effect and 100 is complete control), Barnyardgrass (barnyardgrass): 5 | Barnyardgrass plant response rating (barnyardgrass): 5 | Plant response rating, Barnyardgrass (barnyardgrass; [1]): 35 | Plant response rating, Barnyardgrass (barnyardgrass; [2]): 20 | Oilseed Rape plant response rating (oilseed rape): 5 | Plant response rating, Oilseed Rape (oilseed rape; [1]): 70 | Plant response rating, Oilseed Rape (oilseed rape; [2]): 10 | Plant response rating, Wheat (wheat): 5 | Plant response rating (scale of 0 to 100 where 0 is no effect and 100 is complete control), Nutsedge, Yellow (nutsedge, yellow): 5 | Nutsedge, Yellow plant response rating (nutsedge, yellow): 0 | Plant response rating, Nutsedge, Yellow (nutsedge, yellow; [1]): 10 | Plant response rating, Nutsedge, Yellow (nutsedge, yellow; [2]): 5 | Plant response rating (scale of 0 to 100 where 0 is no effect and 100 is complete control), Lambsquarters (lambsquarters): 60 | Lambsquarters plant response rating (lambsquarters): 65 | Plant response rating, Lambsquarters (lambsquarters; [1]): 75 | Plant response rating, Lambsquarters (lambsquarters; [2]): 75 | Pigweed plant response rating (pigweed): 60 | Plant response rating, Pigweed (pigweed; [1]): 70 | Plant response rating, Pigweed (pigweed; [2]): 70 | Plant response rating (scale of 0 to 100 where 0 is no effect and 100 is complete control), Oat, Wild (oat, wild): 5 | Oat, Wild plant response rating (oat, wild): 5 | Plant response rating, Oat, Wild (oat, wild; [1]): 15 | Plant response rating, Oat, Wild (oat, wild; [2]): 10 | Plant response rating (scale of 0 to 100 where 0 is no effect and 100 is complete control), Galium (galium): 40 | Galium plant response rating (galium): 55 | Plant response rating, Galium (galium; [1]): 90 | Plant response rating, Galium (galium; [2]): 80 | Plant response rating (scale of 0 to 100 where 0 is no effect and 100 is complete control), Corn (corn): 5 | Corn plant response rating (corn): 5 | Plant response rating, Corn (corn; [1]): 15 | Plant response rating, Corn (corn; [2]): 5 | Plant response rating, Ragweed (ragweed; [1]): 40 | Plant response rating, Ragweed (ragweed; [2]): 15 | Plant response rating (scale of 0 to 100 where 0 is no effect and 100 is complete control), Kochia (kochia): 80 | Kochia plant response rating (kochia): 85 | Plant response rating, Kochia (kochia; [1]): 90 | Plant response rating, Kochia (kochia; [2]): 90 | Plant response rating, Soybean (soybean): 95 | Soybean plant response rating (soybean): 80
